Measured values as given in patent US11230586B2, “Exosome production method” (TOAGOSEI CO., LTD., priority 2019, dated 2022).
Ends that are not written are not given here.

Columns and labels:
HeLa cells [1] = assay: Measurement of amount of protein per exosome particle (BCA assay, equation (1)); assay type: cell-based, human
Source text: More specifically, the analyzing step preferably includes, for example, measurement of the total of amount of protein P (μg/mL) contained in the exosome fraction. A conventionally known method (such as BCA assay) can be used without any particular limitations to measure the amount of proteins. As a result, the average amount of protein per exosome, EP (μg), can be calculated based on the following equation (1). […]
(§1) More specifically, a currently commercially available human cervical cancer cell line (HeLa cells) was used as the test cultured cells.
(§2) α-MEM medium containing 10% FBS (product of Gibco) was used to culture the HeLa cells. Furthermore, FBS free of native exosomes derived from animal serum was used for the FBS.
(§3) A suitable amount of medium containing FBS at a concentration of 10% was placed in cell culture dishes having a diameter of 100 mm followed by seeding with HeLa cells so that the number of cells per dish was about 2×10^6 cells.
(§4) Next, the cells were cultured in a-MEM medium containing 10% FBS having the sample peptide suspended therein at a concentration of 5 μM under conditions of 5% CO2 at 37° C. for 48 hours.
Subsequently, the culture broth was obtained and subjected to ultracentrifugation to isolate and recover the exosomes. […]
The amount of protein was measured for each of the three exosome fractions produced as described above. […]

HeLa cells [2] = assay: Calculation of number of exosomes in exosome fractions from treated HeLa cells (NanoSight LM10); assay type: cell-based, human
Source text: as §1, §2, §3, §4
Subsequently, the culture broth was obtained and subjected to ultracentrifugation to isolate and recover the exosomes. More specifically, centrifugation was carried out continuously as described below under conditions of 4° C. […]
The number of exosomes was calculated for each of the three exosome fractions produced as described above. More specifically, the numbers of exosome particles in the exosome fractions were counted followed by calculating the number of exosomes using NanoSight LM10 (Malvern Panalytical Ltd.).

## FIGNLALSDLLAGVAYTANLLLKKRTLRKNDRKKR-CONH2 (FIGNLALSDLLAGVAYTANLLLKKRTLRKNDRKKR-NH2) [Example]
HeLa cells [1]; HeLa cells cultured 48 hours with 5 μM test substance, total protein by BCA divided by particle number
  Amount of protein: 5.9 ×10^−8 μg/exosome
HeLa cells [1]; HeLa cells, 5 μM, 48 hours, in comparison with Comparative Example 1 and Comparative Example 2
  amount of proteins in the exosomes (change, in words): decreased considerably
HeLa cells [2]; HeLa cells cultured 48 hours with 5 μM test substance, exosome fraction by ultracentrifugation, suspended in PBS
  Exosome concentration: 8.31e+08 mL⁻¹
HeLa cells [2]; HeLa cells, 5 μM, 48 hours, versus Comparative Examples
  number of exosomes (change, in words): increase considerably
